Laboratory results published in PubChem BioAssay (NCI).
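96-well plates; 48 h exposure; 5 concentrations. Endpoints by linear interpolation between flanking doses. Not reached: highest tested concentration assigned. GI50: concentration for 50% inhibition of growth. At the TGI there is no net growth.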

Tests used:
Experiment in all cases: NCI tumour cell line growth inhibition, 48 h
[1] = test system: DU-145 prostate
[2] = test system: NCI/ADR-RES ovarian
[3] = test system: ACHN renal
[4] = test system: BT-549 breast
[5] = test system: CAKI-1 renal
[6] = test system: HCC-2998 colon
[7] = test system: HCT-15 colon
[8] = test system: KM12 colon
[9] = test system: MDA-MB-435
[10] = test system: OVCAR-5 ovarian
[11] = test system: OVCAR-8 ovarian
[12] = test system: PC-3 prostate
[13] = test system: RPMI-8226 leukemia
[14] = test system: SF-295 CNS
[15] = test system: SF-539 CNS
[16] = test system: SK-MEL-28 melanoma
[17] = test system: SN12C renal
[18] = test system: SNB-75 CNS
[19] = test system: UO-31 renal
[20] = test system: 786-0 renal
[21] = test system: A498 renal
[22] = test system: A549 NSCLC
[23] = test system: COLO 205 colon
[24] = test system: HCT-116 colon
[25] = test system: HOP-62 NSCLC
[26] = test system: HOP-92 NSCLC
[27] = test system: HS 578T breast
[28] = test system: HT29 colon
[29] = test system: IGROV1 ovarian
[30] = test system: LOX IMVI melanoma
[31] = test system: M14 melanoma
[32] = test system: MALME-3M melanoma
[33] = test system: MCF7 breast
[34] = test system: MDA-MB-231 breast
[35] = test system: NCI-H226 lung
[36] = test system: NCI-H460 lung
[37] = test system: NCI-H522 lung
[38] = test system: OVCAR-3 ovarian
[39] = test system: OVCAR-4 ovarian
[40] = test system: RXF 393 renal
[41] = test system: SF-268 CNS
[42] = test system: SK-MEL-2 melanoma
[43] = test system: SK-MEL-5 melanoma
[44] = test system: SK-OV-3 ovarian
[45] = test system: SNB-19 CNS
[46] = test system: SR leukemia
[47] = test system: SW-620 colon
[48] = test system: T-47D breast
[49] = test system: TK-10 renal
[50] = test system: U251 CNS
[51] = test system: UACC-257 melanoma

SMILES: BrCCCc1n(Cc2ccc3ccccc3c2)c2ccccc2[n+]1Cc1ccc2ccccc2c1
- GI50 [1]: 1.58 µM
- TGI [1]: 4.25 µM
- GI50 [2]: 8.47 µM
- TGI [2]: > 81.3 µM

SMILES: CC(=O)O[C@H]1CC[C@]2(C)[C@H]3CC=C4[C@@H]5CC(C)(C)CC[C@]5(C(=O)NCCNCCN)CC[C@@]4(C)[C@]3(C)CC[C@H]2C1(C)C
- GI50 [3]: 0.196 µM
- TGI [3]: 0.388 µM
- GI50 [4]: 1.68 µM
- TGI [4]: 3.3 µM
- GI50 [5]: 1.25 µM
- TGI [5]: 2.59 µM
- GI50 [1]: 1.29 µM
- TGI [1]: 2.74 µM
- GI50 [6]: 0.624 µM
- TGI [6]: 2.12 µM
- GI50 [7]: 0.282 µM
- TGI [7]: 0.895 µM
- GI50 [8]: 1.64 µM
- TGI [8]: 3.17 µM
- GI50 [9]: 1.34 µM
- TGI [9]: 2.65 µM
- GI50 [2]: 1.65 µM
- TGI [2]: 3.65 µM
- GI50 [10]: 1.64 µM
- TGI [10]: 3.09 µM
- GI50 [11]: 1.7 µM
- TGI [11]: 4.27 µM
- GI50 [12]: 1.1 µM
- TGI [12]: 2.43 µM
- GI50 [13]: 1.2 µM
- TGI [13]: 3.52 µM
- GI50 [14]: 1.77 µM
- TGI [14]: 3.25 µM
- GI50 [15]: 1.51 µM
- TGI [15]: 2.94 µM
- GI50 [16]: 1.71 µM
- TGI [16]: 3.23 µM
- GI50 [17]: 1.67 µM
- TGI [17]: 3.23 µM
- GI50 [18]: 1.36 µM
- TGI [18]: 2.65 µM
- GI50 [19]: 1.28 µM
- TGI [19]: 2.76 µM

SMILES: ClC1=NC(Cl)C(Cl)=N/C1=N\c1ncn[nH]1 (configuration not stated)
- GI50 [20]: 3.41 µM
- TGI [20]: 11.4 µM
- GI50 [21]: 17.8 µM
- TGI [21]: 33.4 µM
- GI50 [22]: 17.1 µM
- TGI [22]: 34.4 µM
- GI50 [3]: 1.88 µM
- TGI [3]: 3.48 µM
- GI50 [4]: 2.45 µM
- TGI [4]: 5.42 µM
- GI50 [5]: 1.78 µM
- TGI [5]: 3.32 µM
- GI50 [23]: 2.28 µM
- TGI [23]: 4.55 µM
- GI50 [1]: 1.9 µM
- TGI [1]: 3.43 µM
- GI50 [6]: 2.17 µM
- TGI [6]: 4.28 µM
- GI50 [24]: 1.76 µM
- TGI [24]: 3.48 µM
- GI50 [7]: 1.95 µM
- TGI [7]: 4.68 µM
- GI50 [25]: 2.3 µM
- TGI [25]: 5.11 µM
- GI50 [26]: 1.59 µM
- TGI [26]: 3.1 µM
- GI50 [27]: 14.3 µM
- TGI [27]: 61 µM
- GI50 [28]: 2.03 µM
- TGI [28]: 3.9 µM
- GI50 [29]: 2.23 µM
- TGI [29]: 4.63 µM
- GI50 [8]: 2.27 µM
- TGI [8]: 4.79 µM
- GI50 [30]: 1.89 µM
- TGI [30]: 3.72 µM
- GI50 [31]: 2.64 µM
- TGI [31]: 7.15 µM
- GI50 [32]: 1.82 µM
- TGI [32]: 3.7 µM
- GI50 [33]: 1.78 µM
- TGI [33]: 4.15 µM
- GI50 [34]: 1.79 µM
- TGI [34]: 3.55 µM
- GI50 [9]: 2.24 µM
- TGI [9]: 6.01 µM
- GI50 [35]: 3.27 µM
- TGI [35]: 15.9 µM
- GI50 [36]: 3.65 µM
- TGI [36]: 14.9 µM
- GI50 [37]: 1.68 µM
- TGI [37]: 3.55 µM
- GI50 [2]: 3.15 µM
- TGI [2]: 8.79 µM
- GI50 [38]: 1.95 µM
- TGI [38]: 3.4 µM
- GI50 [39]: 1.89 µM
- TGI [39]: 3.61 µM
- GI50 [10]: 1.71 µM
- TGI [10]: 3.27 µM
- GI50 [11]: 2.27 µM
- TGI [11]: 6.05 µM
- GI50 [13]: 1.97 µM
- TGI [13]: 4.43 µM
- GI50 [40]: 1.71 µM
- TGI [40]: 3.2 µM
- GI50 [41]: 2.24 µM
- TGI [41]: 5.22 µM
- GI50 [14]: 13.4 µM
- TGI [14]: 28.5 µM
- GI50 [15]: 2.22 µM
- TGI [15]: 5.6 µM
- GI50 [42]: 2.61 µM
- TGI [42]: 5.63 µM
- GI50 [16]: 1.95 µM
- TGI [16]: 4.04 µM
- GI50 [43]: 5.57 µM
- TGI [43]: 18.7 µM
- GI50 [44]: 15.5 µM
- TGI [44]: 29 µM
- GI50 [17]: 1.76 µM
- TGI [17]: 3.31 µM
- GI50 [45]: 11.8 µM
- TGI [45]: 25.4 µM
- GI50 [18]: 5.64 µM
- TGI [18]: 20.7 µM
- GI50 [46]: 1.3 µM
- TGI [46]: 3.63 µM
- GI50 [47]: 2.06 µM
- TGI [47]: 4.3 µM
- GI50 [48]: 1.9 µM
- TGI [48]: 3.91 µM
- GI50 [49]: 1.92 µM
- TGI [49]: 3.44 µM
- GI50 [50]: 4.88 µM
- TGI [50]: 17 µM
- GI50 [51]: 1.7 µM
- TGI [51]: 4.25 µM
- GI50 [19]: 1.68 µM
- TGI [19]: 3.25 µM
